Results: PMC5823870 (Scientific Reports, 2018)

Tests used:
[1] = target: Blh DUF442 domain (ST domain) (Xylella fastidiosa, UniProt Q9PFB0); details: 12 mM potassium phosphate pH 7.4, 25 °C; 12 mM thiosulfate; cyanide as sulfur acceptor
[2] = system: O=S(O)(O)=S; test: purified protein; details: 12 mM potassium phosphate pH 7.4, 25 °C, cyanide 12 mM as sulfur acceptor (methods print potassium cyanate), thiosulfate 0 to 100 mM

Chain of Blh DUF442 domain (ST domain) (Q9PFB0 1-141 limits assumed): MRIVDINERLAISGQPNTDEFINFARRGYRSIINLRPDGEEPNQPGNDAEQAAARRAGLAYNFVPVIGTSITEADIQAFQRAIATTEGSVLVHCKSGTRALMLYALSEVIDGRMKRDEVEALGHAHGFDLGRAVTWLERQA

O=S(=O)(O)S [thiosulfate]
rhodanese assay, iron-thiocyanate absorbance at 460 nm [1]: catalyze the transfer of the sulfane sulfur of thiosulfate to cyanide

full-length Blh (Xylella fastidiosa 9a5c)
Km [2]: 6.2 mM
